SMILES strings stand for the structures. “Also recorded” adds a separate entry of the source. Peptide text beside a SMILES is read from it.

This note sets out measurements from patent US8871900B2, “Fibroblast growth factor (FGF) analogs and uses thereof” (University of Rochester, priority 2008, dated 2014).

One data set has as its system GM-CSF. The data set can be described thus: Plasma cytokine arrays after IR. As to conditions: post-IR. It counts as in vivo, mouse. The source says: A 96 cytokine membrane array (RayBioTech, Norcross, Ga.) and a Luminex Multiple cytokine beads array (Panomics, Fremont, Calif.) were used to determine the alteration of a panel of plasma cytokines after IR and the effect of FGF-P on reversing the altered pattern. […]-P also exerts homeostatic effect to keep cytokine level towards normal balance.

Data set [1] in a line: Plasma endotoxin (LPS) after TBI. It counts as in vivo, mouse. The note with it: IR mice. From the text: This relates with the FGF-P promotion of WBC regeneration. The low endotoxin indicates a low probability of endothelium damage and less consumption of platelet, which promotes the recovery of homeostasis of TBI mice.
Data set [2] concerns endothelial cells (adult bovine aorta endothelium). The data set can be described thus: Growth bioassay, endothelial cells. As to conditions: FGF-P added to culture media. Format: cell-based. How it is done:
(§1) These clusters can be counted thus allowing for measurement of relative binding coefficients. To test the feasibility of binding coefficient measurement, competition experiments were performed. Free FGF-P (30 ug/ml) was added to cells for 20 min and then the biotin-FGF-P (1 μg/mL) was added. One hour later, the streptavidin-FITC was added and analyzed by flow cytometry. […] In a third test, a bioassay was performed. FGF-P was added to culture media of two types of cells: endothelial cells (adult bovine aorta endothelium) and epithelial cells (SW480, a cell line from colon).
(§2) Three preliminary experiments were carried out using FGF-P in vitro to confirm its activity. First, the biotin conjugated FGF-P was used as a tool to examine cell surface binding. AsPC-1 pancreatic cancer epithelial cells are known to have high levels of FGFR and were used for this study. ASPC-1 cells were incubated with 1 μg/ml of biotin-FGF-P and then labeled with streptavidin-FITC. The cells were then analyzed using an imaging flow cytometer (Amnis Imagestream). This device can image each cell as it passes through the laser, and it can then sort cells according to both staining and morphological characteristics. […] These clusters were counted, allowing for measurement of relative binding coefficients. […] One hour later, streptavidin-FITC was added and analyzed by flow cytometry. […]

Another data set deals with BM cells. The data set can be described thus: BM cell growth in round-bottom 96 well 2 D culture (CyQUANT). It counts as cell-based, mouse (Balb/c). As to conditions: FGF-P 500 ng/ml. From the text: (§3) Survival of ARS depends on rapid reconstitution of hematopoiesis after IR-induced myelosuppression. […] However, the timing and mechanism of effect on BM stem cells is unknown. Also unclear are the number of FGFRs on hematopoietic stem cells (HSCs) and their role in reconstitution after IR. […] To characterize the effects of FGF-P on BM, the study approach was to obtain fresh BM (including both HSCs and MSCs) from Balb/c mice, and culture it under varying conditions (3 D culture or 2 D round-bottom well) in triplicate for 1-3 weeks. The BM cells were stimulated with FGF-P at different doses (as test) or with EPO, TPO, GM-CSF or native FGF2 (as a positive control). The cultures were examined using several methods including colony count, photography, CyQUANT® assay and ^3H-TdR incorporation.

Another data set in a line: Stability of FGF-P. It counts as physicochemical.
Data set [3] deals with mice exposed to sub-TBI (GI syndrome). The data set can be described thus: Survival after sub-TBI (GI syndrome / AGS model). It counts as in vivo, mouse (Balb/c, C57BL/6, C3H/HeN). From the text: A sub-TBI (total body irradiation) model was created, in which one leg of mouse is shielded from the direct radiation field. With this system, 8.5 Gy can be delivered to Balb/c mice without BM deaths (defined as deaths that occur between 10 and 30 days). When sub-TBI dose was increased to 9 Gy, half the irradiated mice die, and at 10.5 Gy, 66-100% mice died within 5-7 days. Pathologically these mice have devastating gut damage. In our GI (sub-TBI) model, the LD50/7 for Balb/c mice (6-8 week old from NCI) was 8.9-9.1 Gy. Using this GI model, the mitigation effect of FGF-P on the GI syndrome was tested. FGF-P (2 mg/kg) was given im 5-10 minutes after IR and continued once a day for 3-5 consecutive days. Each animal experiment had its own vehicle mock treatment group as control.
When the sub-TBI dose is raised to 10.5 or 11 Gy, 100% of the untreated control mice died of GI syndrome, while 33-67% of mice treated with FGF-P survived 3.5 months, FIGS. 2B and 2C). When the IR dose was raised to 12 Gy, all control animals died and 17% of FGF-P treated mice survived (FIG. 2D). […] Additionally, many of the animals that do die, do so later than mice not treated with FGF-P.
Native FGF-2 has a mouse strain dependent response profile. Most strains enjoy a benefit, but responses in C57 mice have been unimpressive. To determine if the agent works in mice with different genomic backgrounds, FGF-P (2 mg/kg) was given to C57BL/6 mice 10 min after the mice were exposed to 16 Gy sub-TBI. […] A third strain of mouse, C3H/HeN (LD50/7 about 12 Gy), was also studied. At 12.5 Gy sub-TBI, 33% of control mice survived while 50% of mice treated with FGF-P survived. At 13.5 Gy, all the control mice died within 7 days, while 50% of FGF-P treated mice survived (FIG. 3B). Thus unlike native FGF the bioavailability or bioeffect of FGF-P seems to be strain independent.

A further data set deals with ERK Pathway. The data set can be described thus: Phosphorylation of ERK pathway. Format: cell-based.
Data set [4] has as its system BM cells (megakaryocyte colony). The data set can be described thus: Megakaryocyte colony formation of BM cells (MegaCult-C). It counts as cell-based, mouse (Balb/c). As to conditions: cytokine cocktail reduced to 50%; FGF-P 100 ng/ml.
Source text: as §3

In data set [5] the test system is epithelial cells (SW480, a cell line from colon). The data set can be described thus: Growth bioassay, epithelial cells. It counts as cell-based. The note with it: FGF-P added to culture media. How it is done: as §1, §2
Data set [6] can be described thus: Blood cell counts after 4 or 5 Gy TBI. It counts as in vivo, mouse. From the text:
In parallel, the leucocytes and red cells were increased as compared to vehicle-treated mice that received the same IR dose (FIGS. 17C and D).

The mark [7] stands for this setting: vs vehicle-treated mice, same IR dose.

`CC(C)C[C@H](NC(=O)[C@H](C)NC(=O)[C@@H](NC(=O)[C@H](Cc1ccc(O)cc1)NC(=O)[C@H](Cc1c[nH]c2ccccc12)NC(=O)[C@H](CO)NC(=O)[C@H](CO)NC(=O)[C@H](Cc1ccc(O)cc1)NC(=O)[C@H](CCCCN)NC(=O)[C@H](CCCNC(=N)N)NC(=O)[C@H](CO)NC(=O)[C@H](CCCNC(=N)N)NC(=O)[C@H](Cc1ccc(O)cc1)NC(=O)[C@@H](N)CS)C(C)C)C(=O)N[C@@H](CCCCN)C(=O)N[C@@H](CCCNC(=N)N)C(=O)N[C@@H](CS)C(=O)O` [FGF-P, CYRSRKYSSWYVALKRC] (H-CYRSRKYSSWYVALKRC-OH; N-terminus and C-terminus assumed): the “plasma GM-CSF” value in the data set with GM-CSF is recorded as “increased the IR-reduced GM-CSF”. Further, the “plasma level of endotoxin (LPS)” value in data set [1] is given as “reduced the LPS level”. For the same compound, the growth of endothelium entry in data set [2] was “stimulated the growth of both endothelium and epithelium”. Moreover, the “growth of BM cells” value in the data set on BM cells was “stimulated the growth of BM cells in a similar pattern as TPO, EPO and GM-CSF”. The enzyme resistance result in the data set “Stability of FGF-P” (dry powder) is given as “enzyme-resistant as a dry powder”. Moreover, in the data set “Stability of FGF-P” (severe conditions / liquid, boiling), the stability result is on record as “stable as a liquid even with boiling; also recorded: stable under severe conditions, for example to boiling”. For the same compound, in “Stability of FGF-P” (stability test, boiled vs original form), the “effectiveness of boiled FGF-P” value is on record as “as effective as the original form”. The mice still alive in [3] (Balb/c, 10 Gy sub-TBI, at 4 months, FGF-P 2 mg/kg im 5-10 min after IR, daily 3-5 days) is listed as 87%; in data set [3] (C57BL/6, 16 Gy sub-TBI, at 1.5 months, FGF-P 2 mg/kg 10 min after IR), 33%. The mice survived is reported as 33-67% in [3] (Balb/c, 10.5 or 11 Gy sub-TBI, 3.5 months, FGF-P 2 mg/kg im); 17% in data set [3] (Balb/c, 12 Gy sub-TBI, FGF-P 2 mg/kg im); 50% in data set [3] (C3H/HeN, 12.5 Gy sub-TBI); 50% in data set [3] (C3H/HeN, 13.5 Gy sub-TBI). In data set [3] (C57BL/6, 16 Gy sub-TBI, over 2.5 months), this compound yielded a long-term survival of 33%. For the same compound, the “phosphorylation of ERK pathway” value with ERK Pathway is “triggers phosphorylation of ERK Pathway”. In addition, in data set [4], the megakaryocyte colony formation entry is “greatly stimulated the formation of megakaryocyte colony to the level as native FGF2”. In addition, the growth of epithelium result in data set [5] was “stimulated the growth of both endothelium and epithelium”. Besides, the platelet counts result in [6] (4 or 5 Gy TBI) is “accelerated recovery of platelet counts”. The leucocytes result in [6] (setting [7]) is “increased”. Also, the red cells result in data set [6] (setting [7]) was “increased”.
